Measured values from ChEMBL document CHEMBL1128746, “Aminoalkylindoles: structure-activity relationships of novel cannabinoid mimetics” (J Med Chem, 1995).

Key:
[1] = target: Cannabinoid receptor 1 (Rattus norvegicus) (UniProt P20272); assay: (§1) […] [3H]WIN-55212 binding to Cannabinoid receptor 1 in rat cerebellum membranes.; type: cell membranes; conditions: Membrane, concentration not given here
[2] = organism: Mus musculus; assay: Concentration required to inhibit electrically induced contractions in isolated mouse vas deferens preparation in vitro; type: functional; conditions: Mus musculus
[3] = target: Cannabinoid receptor 1 (Rattus norvegicus, UniProt P20272); assay: as §1; type: cell membranes, Membrane
Cannabinoid receptor 1, sequence (P20272 whole entry): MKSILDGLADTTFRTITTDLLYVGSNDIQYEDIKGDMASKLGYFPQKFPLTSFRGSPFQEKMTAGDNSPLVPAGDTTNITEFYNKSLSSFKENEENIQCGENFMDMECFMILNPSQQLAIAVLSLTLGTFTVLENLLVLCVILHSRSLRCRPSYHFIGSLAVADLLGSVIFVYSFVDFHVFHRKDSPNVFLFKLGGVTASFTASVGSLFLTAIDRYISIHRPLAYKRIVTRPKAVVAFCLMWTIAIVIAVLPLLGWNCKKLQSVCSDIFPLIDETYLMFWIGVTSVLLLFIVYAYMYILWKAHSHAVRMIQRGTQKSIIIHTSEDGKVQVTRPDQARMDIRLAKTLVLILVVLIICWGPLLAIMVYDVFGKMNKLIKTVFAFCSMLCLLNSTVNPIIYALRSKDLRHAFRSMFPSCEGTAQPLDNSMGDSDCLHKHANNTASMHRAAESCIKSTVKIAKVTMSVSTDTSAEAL

Cannabinoid receptor 1 (Rattus norvegicus), sequence (P20272 whole entry): as above

COc1ccc(C(=O)c2c(Cl)n(CCN3CCOCC3)c3ccccc23)cc1
inhibition [1]: 47% | IC50 [2]: 176 nM

COc1ccc(C(=O)c2c(C)n(CCN3CCOCC3)c3ccc(OC)cc23)cc1
inhibition [1]: 14% | IC50 [2]: > 10000 nM

N#Cc1ccc(C(=O)c2cn(CCN3CCOCC3)c3ccccc23)c2ccccc12
inhibition [1]: 96% | IC50 [2]: 4.8 nM

COc1cccc(C(=O)c2c(C)n(CCN3CCOCC3)c3ccccc23)c1
inhibition [1]: 76% | IC50 [2]: 206 nM

Cc1c(C(=O)c2ccccc2C#N)c2ccccc2n1CCN1CCOCC1
inhibition [1]: 0%

Cc1c(C(=O)c2cccc3ccccc23)c2ccccc2n1CC(=O)O
inhibition [1]: 21% | IC50 [2]: 9740 nM

Cc1c(C(=O)c2ccc(C#N)cc2)c2ccccc2n1CCN1CCOCC1
inhibition [1]: -1% | IC50 [2]: > 10000 nM

COc1ccc(C(=O)c2c(C)n(CCN3CCCC3)c3ccccc23)cc1
inhibition [1]: 7% | IC50 [2]: 241 nM

COc1ccc(C(=O)c2c(C)n(CC[N+]3([O-])CCOCC3)c3ccccc23)cc1
inhibition [1]: -9% | IC50 [2]: > 10000 nM

Cc1c(C(=O)c2ccc(Cl)cc2)c2ccccc2n1CCN1CCOCC1
inhibition [1]: 62% | IC50 [2]: 564 nM

Cc1c(C(=O)c2ccc3ccc4cccc5ccc2c3c45)c2ccccc2n1CCN1CCOCC1
inhibition [1]: 89% | IC50 [2]: 42 nM

Cc1[nH]c2ccccc2c1C(=O)c1cccc2ccccc12
inhibition [1]: 3% | IC50 [2]: > 10000 nM

COc1ccc(C(=O)c2c(C)n(CCCN3CCOCC3)c3ccccc23)cc1
inhibition [1]: -6% | IC50 [2]: 360 nM

Cc1c(C(=O)c2cccc3ccccc23)c2ccccc2n1C(C)CN1CCOCC1 (racemic; form 1)
inhibition [1]: 79%

COc1ccc(C(=O)c2cn(CCN3CCOCC3)c3cc(Br)ccc23)cc1
inhibition [1]: 21% | IC50 [2]: 17 nM

Cc1c(C(=O)c2ccc(O)cc2)c2ccccc2n1CCN1CCOCC1
inhibition [1]: 15% | IC50 [2]: > 10000 nM

COc1ccc(C(=O)c2c(O)n(CCN3CCOCC3)c3ccccc23)cc1
inhibition [1]: 1%

Cc1c(C(=O)c2ccccc2O)c2ccccc2n1CCN1CCOCC1
inhibition [1]: -2%

Cc1cccc(C)c1C(=O)c1c(C)n(CCN2CCOCC2)c2ccccc12
inhibition [1]: -5% | IC50 [2]: 1570 nM

COc1ccc(C(=O)c2c(C)n(C(C)CN3CCOCC3)c3ccccc23)cc1 (stereo unspecified)
inhibition [1]: 34% | IC50 [2]: 1360 nM

COc1ccc(C(=O)c2c(C)n(CCN3CCOCC3)c3cccc(C)c23)cc1
inhibition [1]: 42% | IC50 [2]: > 10000 nM

Cc1c(C=O)c2ccccc2n1CCN1CCOCC1
inhibition [1]: 37% | IC50 [2]: 656 nM

Cc1c(C(=O)c2cccc3ccccc23)c2ccccc2n1CCN1CCNCC1
inhibition [1]: -9%

COc1ccc(C(=O)c2c(C)n(CCN(C)C)c3ccccc23)cc1
inhibition [1]: 11%

COc1ccc(C(=O)c2c(C)n(CCN3CCCCC3)c3ccccc23)cc1
inhibition [1]: 34% | IC50 [2]: 1430 nM

Cc1c(C(=O)c2cccc(F)c2)c2ccccc2n1CCN1CCOCC1
inhibition [1]: 38%

COc1ccc(C(=O)c2cn(C(C)CN3CCOCC3)c3ccccc23)cc1 (stereo unspecified)
inhibition [1]: 35% | IC50 [2]: 3670 nM

COc1ccc(C(=O)c2c(C#N)n(CCN3CCOCC3)c3ccccc23)cc1
inhibition [1]: 3%

O=C(c1cccc2c1CCCC2)c1cn(CCN2CCOCC2)c2ccccc12
inhibition [1]: 97% | IC50 [2]: 6 nM

C[N+]1(CCn2cc(C(=O)c3cccc4ccccc34)c3ccccc32)CCOCC1
inhibition [1]: 14% | IC50 [2]: 180 nM

COc1ccc(C(=O)c2c(C)n(CCN3CCOCC3)c3ccc(F)cc23)cc1
inhibition [1]: 19% | IC50 [2]: 119 nM

COc1ccc(C(=O)c2c(C)n(CCN3CCOCC3)c3c(OC)cccc23)cc1
inhibition [1]: 64% | IC50 [2]: 266 nM

Cc1c(C(=O)c2ccc(F)cc2)c2ccccc2n1CCN1CCOCC1
inhibition [1]: 12%

Cc1c(C(=O)c2cc3ccccc3c3ccccc23)c2ccccc2n1CCN1CCOCC1
inhibition [1]: 75% | IC50 [2]: 175 nM

COc1ccc(C(=O)c2c(C)n(CCN3CCOCC3)c3ccc(C)cc23)cc1
inhibition [1]: 7% | IC50 [2]: > 10000 nM

O=C(c1ccc(Br)c2ccccc12)c1cn(CCN2CCOCC2)c2ccccc12
inhibition [1]: 98% | IC50 [2]: 5.5 nM

Cc1c(C(=O)c2cccc3cc4ccccc4cc23)c2ccccc2n1CCN1CCOCC1
inhibition [1]: 74% | IC50 [2]: 57 nM

Cc1ccccc1C(=O)c1c(C)n(CCN2CCOCC2)c2ccccc12
inhibition [1]: 13% | IC50 [2]: 715 nM

Cc1c(C(=O)c2ccccc2F)c2ccccc2n1CCN1CCOCC1
inhibition [1]: 15% | IC50 [2]: 1940 nM

Cc1c(C(=O)c2ccc(-c3ccccc3)cc2)c2ccccc2n1CCN1CCOCC1
inhibition [1]: 9% | IC50 [2]: 10000 nM

COc1ccc(C(=O)c2c(C)n(CCO)c3ccccc23)cc1
inhibition [1]: -6% | IC50 [2]: > 10000 nM

CC(CN1CCOCC1)n1cc(C(=O)c2cccc3ccccc23)c2ccccc21 (racemic; form 2)
inhibition [1]: 94%

Cc1c(C(=O)c2ccccc2Cl)c2ccccc2n1CCN1CCOCC1
inhibition [1]: 59% | IC50 [2]: 92 nM

Cc1c(C(=O)c2cccc(C#N)c2)c2ccccc2n1CCN1CCOCC1
inhibition [1]: 1%

Cc1c(C(=O)c2cccc3ccccc23)c2ccccc2n1CCN1CCOCC1
IC50 [3]: 19 nM | IC50 [2]: 15 nM

COc1ccc(C(=O)c2cn(CCN3CCOCC3)c3ccccc23)cc1
IC50 [3]: 390 nM | IC50 [2]: 101 nM

COc1ccc(C(=O)c2c(F)n(CCN3CCOCC3)c3ccccc23)cc1
inhibition [1]: 7%

COc1ccc(C(=O)c2c(C)n(CCN3CCS(=O)(=O)CC3)c3ccccc23)cc1
inhibition [1]: -4%

Cc1c(C(=O)c2cccc3ncccc23)c2ccccc2n1CCN1CCOCC1
IC50 [3]: 828 nM | IC50 [2]: 79 nM

CCc1ccc(C(=O)c2c(C)n(CCN3CCOCC3)c3ccccc23)cc1
IC50 [3]: 306 nM | IC50 [2]: 71 nM

Cc1c(C(=O)c2ccc3ccccc3n2)c2ccccc2n1CCN1CCOCC1
IC50 [3]: 331 nM | IC50 [2]: 99 nM

Cc1c(C(=O)c2ccc(C(C)(C)C)cc2)c2ccccc2n1CCN1CCOCC1
inhibition [1]: 56%

Cc1c(C(=O)c2cnc3ccccc3c2)c2ccccc2n1CCN1CCOCC1
inhibition [1]: 28% | IC50 [2]: 571 nM

Cc1cc(C)cc(C(=O)c2c(C)n(CCN3CCOCC3)c3ccccc23)c1
inhibition [1]: 42% | IC50 [2]: 390 nM

O=C(c1c2ccccc2cc2ccccc12)c1cn(CCN2CCOCC2)c2ccccc12
IC50 [3]: 2960 nM | IC50 [2]: > 10000 nM

Cc1c(C(=O)c2cccc3ccccc23)c2ccccc2n1CCN1CCOC(C)C1 (stereo unspecified)
IC50 [3]: 59 nM | IC50 [2]: 30 nM

O=C(c1ccc2ccccc2c1)c1cn(CCN2CCOCC2)c2ccccc12
IC50 [3]: 59 nM | IC50 [2]: 31 nM

COc1ccc(C(=O)c2c(C)n(CCN3CCOCC3)c3c(C)cccc23)cc1
IC50 [3]: 1530 nM | IC50 [2]: 178 nM

Cc1c(C(=O)c2cccc3cccnc23)c2ccccc2n1CCN1CCOCC1
IC50 [3]: 274 nM | IC50 [2]: 129 nM

COc1ccccc1C(=O)c1c(C)n(CCN2CCOCC2)c2ccccc12
IC50 [3]: 800 nM | IC50 [2]: 91 nM
